Marks after values point to notes of the source that are not given here.
Test system: LAPC-4 cells
Test: Gene expression study by qPCR
Assay type: cell-based, human
Conditions: RM-581 5 µM or atorvastatin 10 µM, CTL fixed at 1.0
Experimental: LAPC-4 cells (3 × 10^5) were treated with RM-581 (1, 2, and 5 µM) at different times (6, 18, 24, and 36 h) and the expression of various genes was determined as previously reported. Primer sequences used for the analysis of each gene are reported in Table S3 (Supplementary Materials).

C#C[C@]1(O)CC[C@H]2[C@@H]3CCc4cc(OC)c(N5CCN(C(=O)[C@@H]6CCCN6C(=O)c6ccc7ccccc7n6)CC5)cc4[C@H]3CC[C@@]21C [RM-581]
ACAT1 mRNA expression (6 h): 0.7 *
ACLY mRNA expression (6 h): 0.8
FASN mRNA expression (6 h): 1.0
HMGCR mRNA expression (6 h): 1.9 **
HMGCS1 mRNA expression (6 h): 2.7 **
LDLR mRNA expression (6 h): 1.4
MVD mRNA expression (6 h): 2.7 **
MVK mRNA expression (6 h): 1.2
SCD1 mRNA expression (6 h): 0.7
ACAT1 mRNA expression (18 h): 0.9
ACLY mRNA expression (18 h): 0.4 **
FASN mRNA expression (18 h): 0.5 **
HMGCR mRNA expression (18 h): 1.2
HMGCS1 mRNA expression (18 h): 3.3 **
LDLR mRNA expression (18 h): 1.8 **
MVD mRNA expression (18 h): 1.8 **
MVK mRNA expression (18 h): 1.6
SCD1 mRNA expression (18 h): 0.8
ACAT1 mRNA expression (24 h): 1.1
ACLY mRNA expression (24 h): 0.9
FASN mRNA expression (24 h): 0.6 *
HMGCR mRNA expression (24 h): 2.6 **
HMGCS1 mRNA expression (24 h): 2.4 **
LDLR mRNA expression (24 h): 2.6 **
MVD mRNA expression (24 h): 2.1 **
MVK mRNA expression (24 h): 1.0
SCD1 mRNA expression (24 h): 2.5 **
ACAT1 mRNA expression (36 h): 1.2
ACLY mRNA expression (36 h): 0.9
FASN mRNA expression (36 h): 0.6 *
HMGCR mRNA expression (36 h): 2.5 **
HMGCS1 mRNA expression (36 h): 2.0 **
LDLR mRNA expression (36 h): 2.5 **
MVD mRNA expression (36 h): 1.6 **
MVK mRNA expression (36 h): 1.0
SCD1 mRNA expression (36 h): 3.5 **

Source: article PMC10252594 (Cancers, 2023)
